Measurements as given in a melting point compilation (Tetko et al.; mined from patent text by program, amines drawn as free bases though some values may be those of a salt).

Structure (SMILES)	melting point [°C]
CCC(CC)c1ccc(Cl)c2nc(Nc3c(C)cc(Cl)cc3OC)n(CC(=O)OC(C)C)c12	205 to 207
CCOC(=O)c1ccc(C(C(N)=O)C(C)c2cc(C)ccc2N2CCCCC2)cc1 (stereo unspecified)	132
O=C(O)c1ccccc1C(=O)OC1CCN(c2cc(-c3ccccc3)nc(-c3ccccc3)n2)CC1	96 to 98
CN(C)C(=O)NC(=O)C(C)(C)Br	98 to 100
O=C(Nc1nc(Cl)nc(Cl)n1)NS(=O)(=O)c1cccc2cccnc12	145 to 147
COC(=O)C1CNC(CCc2ccccc2)=N1 (racemic)	136 to 141
CCC(=O)OCC(=O)Nc1nc2ccc(OC)cc2s1	145 to 147
CS(=O)(=O)c1nccc(-c2ccccc2)n1	136 to 137
CCCOc1ccccc1C1=NC(=O)C2=CN=NC2=N1	170 to 171
O=C(Nc1ccc(OCCO)cc1)c1ccc(N2CCNCC2)cc1	> 260
C=CCOc1ccc(OC)c2ccccc12	30.5 to 32
O=Cc1cccnc1Br	74 to 76
CC(C)(C)c1ccc2c(c1)C(=O)NC2	142 to 144
N#CC1(CCCCCCCCCCCCC2(C#N)CC2)CC1	45 to 46.9
COc1ccc(-n2c(-c3ccc(Cl)cc3Cl)nc(C(=O)O)c2C)cc1	189 to 191
COc1cc2c(c3c1C1CCC3CC1)OC(CN)C2 (stereo unspecified)	> 210
CCCCCCC[C@@H](O)[C@@H](NCc1ccccc1)C(=O)O	197 to 199
CCCCCOc1ccc(CCOc2ccc(/C=C(\OCC)C(=O)O)cc2OC)cc1	135
CC1(C)CCN(c2cccc(-c3cnc4[nH]cc(C(=O)C(C)(C)C)c4n3)c2)C1	233 to 235
Cc1cc(C)nc(NC2CCC(CCN3CCN(c4ccccc4)CC3)CC2)n1 (stereo unspecified)	127 to 129
CCCNCC(O)c1ccc(S(C)(=O)=O)cc1 (stereo unspecified)	120 to 123
COCC(C)Nc1cc(-c2ncnc(Nc3cccc(Cl)c3)n2)ccn1 (stereo unspecified)	149 to 151
OC1Oc2ccccc2-n2cnc(-c3noc(C4CC4)n3)c21 (stereo unspecified)	230 to 234
N#Cc1nc2cc(O)ccc2s1	194
CCOP(=O)(CC(=O)N1CCc2ccccc21)OCC	97 to 99
Cc1nnc2n1-c1sc(C#CCN3C(=O)C(=O)c4ccccc43)cc1C(c1ccccc1Cl)=NC2	185 to 190

Structure (SMILES)	melting point [°C]
O=[N+]([O-])c1ccc(S(=O)(=O)NCc2ccccc2C(F)(F)F)c([N+](=O)[O-])c1	157 to 158
O=C(NC(Cc1ccccc1)C(=O)O)c1ccc(-c2cnc(OCc3ccccc3)nc2)cc1 (stereo unspecified)	184
CC(C)Nc1c(-c2ccc(C#N)cc2)c(Cl)nc2ncnn12	190
CCOCc1nc2c(N)nc3cc(/C=C/S(=O)(=O)c4ccccc4)ccc3c2n1CCCOC(C)C	188 to 190
C=C1C(O)C(CO)OC1n1cc(CC)c(=O)[nH]c1=O (stereo unspecified)	137 to 139
N#CCC1CCSc2sccc2C1=O (stereo unspecified)	68 to 70
O=CC(=Cc1ccc(OC(=O)c2ccccc2)cc1)C(C=O)=Cc1ccc(OC(=O)c2ccccc2)cc1	207 to 208
CC(C)(C)NC(=O)OC1CCN(c2cccc(C(F)(F)F)c2)C1=O (stereo unspecified)	115 to 117
CC(C1CCC(Oc2ccc(F)cc2)C1)N(O)C(N)=O (stereo unspecified)	111 to 112
Cc1cccc(C)c1CNc1cc(S(=O)(=O)N(C)C)cc2c1nc(C)n2C	237 to 238
CCN(CC)CCCNC(=O)Cn1ncc(-c2ccc([N+](=O)[O-])cc2)c1-c1ccccc1	100 to 101
C=CC(=O)Nc1cccc(CCCc2n[nH]c3cc(C)nn23)c1	195 to 197
CCN(CC)C(=O)Nc1ccc2c(c1Cl)C(c1ccccc1F)=NCC(=O)N2C	190 to 191
O=C(O)CCCc1cccc(C(=O)c2ccc(Cl)cc2)c1	94
CC(C#N)=C1CCN(c2ccc(N3CC(COc4ccon4)OC3=O)cc2F)CC1 (stereo unspecified)	137 to 138
O=C1OC(=O)c2nc(C(Cl)(Cl)Cl)ccc21	126 to 127
O=C1CCC(c2cccc(Cl)c2)(c2cccc(Cl)c2)[C@@H]2CN(C(=O)Cc3ccccc3)C[C@H]12 (racemic)	160
COCCNC(=O)c1cc(C(=O)OC)c2cc(Cc3ccc(F)cc3)cnc2c1O	165 to 167
COCCOc1ccc(/C=C/C(=O)NS(=O)(=O)c2ccccn2)c(Oc2ncc(C(F)(F)F)cc2Cl)c1	164 to 165
Cc1cccc(C)c1CNc1cc(C(=O)N(C)CCO)cc2c1nc(C)n2C	177 to 178
CCCC1COC(c2cc(F)c(C(F)(F)Oc3ccc(-c4cc(F)c(OC(F)(F)F)c(F)c4)c(F)c3)c(F)c2)OC1 (stereo unspecified)	61
CC(C)(C)C1CCC2(CC1)CC(=NO)CO2 (stereo unspecified)	118
CC(C(N)=O)c1ccc(C(=O)c2cccs2)cc1 (stereo unspecified)	108 to 124
CC(C)(C)OC(=O)c1nc(-c2ccccc2)[nH]c1-c1ccccn1	211 to 213
Nc1ccc(-c2nc(Cl)c3c(=O)[nH][nH]c(=O)c3c2N)cc1	> 300
CCOC(=O)C1CCN(C(=O)OCC)c2ccccc2C1O (stereo unspecified)	93

Structure (SMILES)	melting point [°C]
C=Cc1cccc(OC)c1[N+](=O)[O-]	55 to 56
Cc1ccc(S(=O)(=O)ON=C2CCCc3c2ccc(OCc2ccccc2)c3N(C)C(=O)OCc2ccccc2)cc1	158 to 160
O=S(=O)(NC1CCOCC1)c1ccc(Cl)cc1	127 to 129
CCc1cccc2c1C(=O)N1CCC[C@H]1c1c(C(=O)OC(C)(C)C)ncn1-2	155 to 156
O=C(Nc1ccc2ccc(-c3ccccc3)nc2n1)c1cccc(Cl)c1	175
COc1nc(NC(=O)NS(=O)(=O)c2ccccc2OC(F)F)nc(N(C)C)n1	171 to 172
CCOC(=O)C(=O)N(c1ccccc1)c1cc(OC)c([N+](=O)[O-])cc1OC	146 to 147
CCOc1cc(N)nc(Cl)n1	133
CS(=O)(=O)c1ccc(-c2nn3cc(C(F)(F)F)oc3c2-c2ccc(F)cc2)cc1	186 to 189
N#CCc1cccc(Cc2ccccc2)c1	136 to 137
Cc1c(N)c(=O)n2c3c(cc(C(O)(C(F)(F)F)C(F)(F)F)cc13)CC2	292 to 293
CCCCCC(=O)c1cnc2c(OC)cccc2c1Nc1ccccc1C	94 to 96
CCCCCCCCCCCCCCCCCc1cc(=O)[nH]c(NC(=N)Nc2ccccc2)n1	164
CS(=O)(=O)NCCCOS(C)(=O)=O	53.5 to 55.5
c1cnc(NCCN2CCC(=C3c4ccccc4CCn4ncnc43)CC2)nc1	162
Cc1ccc(C(=O)OCn2c(Br)c(Br)c(S(=O)(=O)C(F)(F)F)c2-c2ccc(Cl)cc2)cc1	74 to 78
CN(C)CCNC(=O)c1cccc([N+](=O)[O-])c1	89 to 90
CN1C(=O)CC[C@]2(C)c3ccc(-c4ccc5c(c4)OCO5)cc3CC[C@@H]12	146 to 152
O=C(O)c1cn(C2CC2)c2c(Br)c(F)c(F)cc2c1=O	224 to 226
CCc1c(C)nc2ccc(C)cn2c1=O	154 to 156
Cc1ccc(-c2c(Cl)ncnc2NS(=O)(=O)c2ccc(C(C)(C)CO)cc2)cc1	227 to 228
COc1cc2nc(N)nc(-c3cccc(I)c3)c2cc1OC	235 to 242
CC(=O)SCC(CC(C)C)C(=O)Nc1cccc(C(=O)O)c1C (stereo unspecified)	154 to 156
CCOC(=O)C(=O)NC(=O)N1CC1C#N (stereo unspecified)	104 to 106
CCCCc1nc(Cl)c(CO)n1Cc1ccc(NC(=O)C(NC(=O)OC(C)(C)C)C(=O)O)cc1 (racemic)	144 to 147
CCCN1CC(c2cccc(Cl)c2)=C(c2ccc(S(N)(=O)=O)cc2)C1=O	149 to 150

Structure (SMILES)	melting point [°C]
O=C(O)Cc1ccc(NC(=O)Nc2ccccc2C(F)(F)F)cc1	224 to 225
O=C1COc2ccc(CN3CCN(c4ccccc4)CC3)cc2N1	207 to 209
CCN(CC)Cc1cc(NC(=O)Nc2ccc(Oc3cc(N)ncn3)cc2)cc(C(F)(F)F)c1	63 to 65
CCNc1cccc(NC(=O)COC)c1C#N	118 to 119
COc1ccc2[nH]c(C(=O)c3ccc(F)cc3)cc2c1	167 to 169
O=c1c2cnccc2[nH]c2ccnn12	> 300
c1ccc(CC2CCN(Cc3ccn(-c4ccccc4)c3)CC2)cc1	159 to 161
CC(=O)Nc1cc2c(cc1[N+](=O)[O-])OC(C)(C)[C@@H](O)[C@@H]2NC(C)=O (relative stereo)	244 to 246
Cc1ccc(-c2c(C#N)c(CC(C)C)nc3ccc(OCc4ccccc4)cc23)cc1	137 to 138
CCCc1c(C)c(NC(=O)CC(C)(C)C)c(C)c2c1SCC2c1ccc(C(C)C)cc1 (stereo unspecified)	159 to 160
Nc1ccccc1NC(=O)c1ccc(C(=O)Nc2cccc(Nc3nc(-c4cccnc4)cs3)c2)s1	222
COc1cc2c(cc1O)CCCN(Cc1cc(OC)c(OC)c(OC)c1)C2	46 to 48
CC(C)c1ccc(Cc2ccc(CC#N)n2C)cc1	59 to 64
CCCCNc1nc(N2CC3CCC(CC3)C2)nc(N2CC3CCC(CC3)C2)n1	101 to 103
COC1=CCC2=C(CCC3C2CCC2(C)C(=O)CCC32)C1 (stereo unspecified)	106 to 110
CCc1c([N+](=O)[O-])c(C(N)=O)nn1C[C@H]1CCCN1C	111 to 116
CCc1nc2c(C)cc(C)nc2n1Cc1ccc(C(Cc2nnn[nH]2)c2ccc(OC)cc2)cc1 (stereo unspecified)	96 to 99
Cc1ccc(C(=O)n2c3c(c4ccccc42)C(C(=O)O)CCC3)cc1 (stereo unspecified)	181 to 183
CSc1nncc(C(C)(C)C)n1	91 to 93
CC12CCC3c4ccc(C(=O)O)cc4CCC3C1CCC2C(=O)c1ccc(S(C)(=O)=O)cc1 (stereo unspecified)	283 to 286
CC(C)=NOCc1nc2c(N)nc3cccnc3c2n1CCCNC(=O)OC(C)(C)C	148 to 150
CC(=O)Nc1c(C(=O)c2ccccc2)[nH]c2c(Cl)cccc12	185 to 188
Cn1c(=O)cc(CCc2ccc(Cl)s2)c2cc(C(=O)c3ccc(Cl)cc3)ccc21	151
